Assay [1] addresses recombinant human baculovirus-expressed AXL (Homo sapiens (Human), UniProt P30530). The assay can be described thus: AXL Kinase Assay (HTRF KinEASE). In kind it is biochemical. Conditions: average of two or more determinations. Background: Time-resolved FRET reads energy transfer from a long-lived donor to a nearby acceptor.
The target of assay [2] is recombinant human baculovirus-expressed cMET (Homo sapiens (Human), UniProt P08581). The assay can be described thus: C-MET Kinase Assay (HTRF KinEASE). Conditions: average of two or more determinations; read-out: c-MET IC50. The assay is classed as biochemical. The method, boiled down: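 HTRF KinEASE format with recombinant human baculovirus-expressed cMET at 8 ng/mL, biotinylated peptide at 0.1 μM and ATP at 0.02 μM. IC50 came from percent control activity versus log concentration, fitted by nonlinear regression to a variable-slope sigmoidal equation with bottom fixed at 0 and top at 100.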

These results are taken from patent publication US9745283B2, “Uracil derivatives as AXL and c-MET kinase inhibitors” (priority 2011, dated 2017).

`CCn1cc(C(=O)Nc2ccc(Oc3ccnc4cc(OC)c(OC)cc34)c(F)c2F)c(=O)n(-c2ccc(F)cc2)c1=O` [Example 147, 1-Ethyl-3-(4-fluoro-phenyl)-2,4-dioxo-1,2,3,4-tetrahydro-pyrimidine-5-carboxylic acid [4-(6,7-dimethoxy-quinolin-4-yloxy)-2,3-difluoro-phenyl]-amide]: the IC50 in assay [1] and in assay [2] was below 0.01 µM each time.
As to `COc1cc2nccc(Oc3ccc(NC(=O)c4c[nH]c(=O)n(-c5ccc(F)cc5)c4=O)cc3C)c2cc1OC` [Example 149, 3-(4-Fluoro-phenyl)-2,4-dioxo-1,2,3,4-tetrahydro-pyrimidine-5-carboxylic acid [4-(6,7-dimethoxy-quinolin-4-yloxy)-3-methyl-phenyl]-amide], the IC50 in assay [1] and in assay [2] was below 0.01 µM throughout.
With `COc1cc2nccc(Oc3ccc(NC(=O)c4c[nH]c(=O)n(-c5ccc(F)cc5)c4=O)cc3OC)c2cc1OC` [Example 150, 3-(4-Fluoro-phenyl)-2,4-dioxo-1,2,3,4-tetrahydro-pyrimidine-5-carboxylic acid [4-(6,7-dimethoxy-quinolin-4-yloxy)-3-methoxy-phenyl]-amide], the IC50 in assay [1] is below 0.01 µM; in assay [2], 0.01 to 0.1 µM.
Take `CCn1cc(C(=O)Nc2ccc(Oc3ccnc4cc(OC)c(OC)cc34)c(OC)c2)c(=O)n(-c2ccc(F)cc2)c1=O` [Example 151, 1-Ethyl-3-(4-fluoro-phenyl)-2,4-dioxo-1,2,3,4-tetrahydro-pyrimidine-5-carboxylic acid [4-(6,7-dimethoxy-quinolin-4-yloxy)-3-methoxy-phenyl]-amide]: the values for the IC50 in assay [1] and in assay [2] were below 0.01 µM and 0.01 to 0.1 µM, respectively.
Taken in the same sequence, the figures for `CCn1cc(C(=O)Nc2ccc(Oc3ccnc4cc(OC)c(OC)cc34)c(C(F)(F)F)c2)c(=O)n(-c2ccc(F)cc2)c1=O` [Example 159, 1-Ethyl-3-(4-fluoro-phenyl)-2,4-dioxo-1,2,3,4-tetrahydro-pyrimidine-5-carboxylic acid [4-(6,7-dimethoxy-quinolin-4-yloxy)-3-trifluoromethyl-phenyl]-amide] were below 0.01 µM and 0.01 to 0.1 µM.
`CCn1nc(C(=O)Nc2ccc(Oc3ccnc4cc(OC)ccc34)c(F)c2)c(=O)n(-c2ccc(F)cc2)c1=O` [Example 171, 2-Ethyl-4-(4-fluoro-phenyl)-3,5-dioxo-2,3,4,5-tetrahydro-1,2,4-triazine-6-carboxylic acid [3-fluoro-4-(7-methoxy-quinolin-4-yloxy)-phenyl]-amide]: the IC50 in assay [1] and in assay [2] was below 0.01 µM in each case.

The term IC50 denotes the concentration that inhibits the measured activity by half.
